# Measured values from patent US20260325477A1, “METHODS OF TREATMENT USING DRY POWDER COMPOSITIONS OF TREPROSTINIL PRODRUGS” (Insmed Incorporated, priority 2024, published 2026).
# Tests used:
# [1] = system: healthy adults; assay: Phase I single-dose safety and tolerability of TPIP in healthy adults; assay type: in vivo, human; details: single doses 112.5, 225, 450 and 675 μg
# Protocol: Specifically, in a Phase I safety, tolerability, and PK study, healthy adults were administered single doses of 112.5 μg, 225 μg, 450 μg, and 675 μg of a compound of Formula (II).
# [2] = Phase I pharmacokinetics of treprostinil after inhalation of the compound of Formula (II); assay type: in vivo, human; details: dose range of 112.5 μg to 675 μg
# Protocol: The term “Cmax” means the maximum (or peak) treprostinil serum concentration measured after a compound of Formula (I) or (II), an enantiomer or diastereomer thereof, or a pharmaceutically acceptable salt thereof is administered to the lungs of a subject via a dry powder composition described herein. In addition, Cmax may be measured after a single administration of a compound of Formula (I) or (II), an enantiomer or diastereomer thereof, or a pharmaceutically acceptable salt thereof, described herein, or treprostinil Cmax may be measured at steady state. Unless stated otherwise, Cmax refers to the average treprostinil Cmax measured after a single administration among a population of subjects (e.g., a population of PH patients).
# The term “AUC” means the area under the plasma concentration time curve for treprostinil, measured from time 0 to a certain time post-administration to the lungs of a subject, calculated by a combination of linear and logarithmic trapezoidal methods (Linear up/log down method). […] In addition, treprostinil AUC may be measured after a single administration or at steady state values. Unless stated otherwise, AUC refers to the average AUC measured after a single administration among a population of subjects (e.g., a population of PH patients). […]
# [3] = system: subjects with pulmonary hypertension; assay: Phase 2 safety and efficacy study in subjects with pulmonary hypertension; assay type: in vivo, human
# Protocol: In a Phase 2 safety and efficacy study, the following doses of were investigated in subjects with pulmonary hypertension, including pulmonary arterial hypertension: 80 μg, 160 μg, 240 μg, 320 μg, 400 μg, 480 μg, and 640 μg. In this study, patients were administered a starting dose of 80 μg of the TPIP and the dose was titrated up to 640 μg according to FIG. 2.
# [4] = Nonclinical studies of TP: conversion, delivery, PK and PD
# Excerpt: (§1) Treprostinil palmitil (TP) is a hexadecyl ester prodrug of treprostinil (TRE). In the lung, TP is hydrolyzed by esterases to TRE and hexadecanol.
# [5] = system: rodent model of PAH; assay: Rodent model of PAH; assay type: in vivo; details: inhibition of associated adverse pathology and pathophysiology
# Excerpt: as §1
# [6] = Nonclinical safety and toxicology of TP; assay type: in vivo
# Excerpt: as §1
smiles,measurement,setting,value
CCCCCCCCCCCCCCCCOC(=O)COc1cccc2c1C[C@H]1C[C@@H](O)[C@H](CC[C@@H](O)CCCCC)[C@H]1C2 [treprostinil palmitil],safety and tolerability,[1],safe and well-tolerated
same,serious or severe TEAEs,[1],no serious or severe TEAEs were observed
same,"pharmacokinetic (PK) profile, dose linearity",[2],linear
same,tolerability,"[3]; 640 μg, highest dose administered in a clinical trial",well tolerated
same,tolerability,"[3]; all doses, 80 μg to 640 μg",well tolerated
same,efficacy,[3]; higher doses,promising efficacy
same,PK and PD profile,[4],prolonged PK and PD profile
same,delivery of treprostinil to the lungs and systemic circulation,[4],sustained delivery
same,"conversion from the prodrug to the active drug, treprostinil",[4]; in vitro and in vivo,"converted from the prodrug to the active drug, treprostinil"
same,efficacy in a rodent model of PAH,[5],efficacious
same,preclinical safety or toxicological findings,[6],did not demonstrate concerning preclinical safety or toxicological findings
